# Test results: patent US12624026B2, “Inhibitors of SARM1” (Disarm Therapeutics, Inc., priority 2018, dated 2026)
# Test system: mouse dorsal root ganglion (DRG) drop culture
# Experiment: Axon degeneration assay in mouse DRG drop culture
# Type: cell-based
# Settings: protection of axon fragmentation, axonal transection or chemotoxic stimuli
# Protocol: This Example illustrates an in vitro axon degeneration assay used to characterize compounds of Formula I or Formula II. This assay is used to test the efficacy of the compounds of Formula I or Formula II to prevent axonal degeneration in a mouse dorsal root ganglion (DRG) drop culture.
# Mouse DRG Drop culture: Mouse dorsal root ganglion neurons (DRGs) were dissected out of E12.5 CD1 mice (50 ganglion per embryo) and incubated with 0.5% Trypsin solution containing 0.02% EDTA (Gibco) at 37° C. for 15 min. The cells were then triturated by gentle pipetting and washed 3 times with DRG growth medium (Neurobasal medium (Gibco) containing 2% B27 (Invitrogen), 100 ng/ml 2.5S NGF (Harland Bioproducts), […] 5-fluoro-2′deoxyuridine (Sigma), penicillin, and streptomycin). Cells were suspended in the DRG growth medium. DRG drop cultures were created by spotting 5000 cells/well into the center of each well of a 96-well tissue culture plate coated with poly-D-Lysine (0.1 mg/ml; Sigma) and laminin ([…]; Invitrogen). Cells were allowed to adhere to the plates in a humidified tissue culture incubator (5% CO2) for 15 min and then DRG growth medium was gently added ([…]).
# Axon degeneration assay: Axonal degeneration was stimulated either by manual axonal transection using a scalpel blade, or chemotoxic stimuli. After an appropriate experimental time period, the DRG cultures were fixed in 1% PFA plus sucrose and kept in the fridge prior to imaging. Bright-field images of DRG axons and cell bodies were collected using the 20× water immersion lens of a Phenix automated confocal microscope (PerkinElmer) and quantitation of axonal performed using in-house developed scripts (Acapella, PerkinElmer).
row,Compound,IC50 [nM]
1,N#Cc1c(O)nsc1Nc1ccccc1C(F)(F)F [Example 6],10000 to 30000

# Biological target: T1, SARM1 SAM-TIR (Homo sapiens, UniProt Q6SZW1);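 also: inhibition of SARM1 SAM-TIR NADase activity, i.e. NAD+ cleavage, using lysate of NRK1-HEK293T cells overexpressing the SAM-TIR fragment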
# T1 construct: a fragment of the SARM1 molecule encompassing the SAM and TIR domains; made in house; host or cells: NRK1-HEK293T cells, transiently transfected; the cleared, unpurified lysate was used as the enzyme
# T1 sequence (Q6SZW1 409-724 limits assumed): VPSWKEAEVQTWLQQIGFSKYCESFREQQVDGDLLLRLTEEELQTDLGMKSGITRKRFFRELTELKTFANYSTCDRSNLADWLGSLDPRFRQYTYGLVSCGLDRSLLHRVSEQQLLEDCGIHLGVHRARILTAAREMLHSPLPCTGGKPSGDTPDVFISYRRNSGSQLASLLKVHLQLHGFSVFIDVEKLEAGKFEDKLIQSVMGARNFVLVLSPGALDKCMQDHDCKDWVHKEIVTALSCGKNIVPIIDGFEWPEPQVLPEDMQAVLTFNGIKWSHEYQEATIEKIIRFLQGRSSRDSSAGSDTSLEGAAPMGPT
# Experiment: biochemical
# Settings: SAM-TIR lysate 5 μg/mL, 2 h pre-incubation, 5 μM NAD+, RapidFire MS of NAD+ and ADPR; read-out: SARM1 IC50
row,Compound,IC50 [nM]
1,O=C(c1c(Nc2c(F)cccc2Cl)s[nH]c1=O)N1CCOCC1 [Example 149],1000 to 5000
2,N#Cc1c(O)nsc1Nc1ccccc1F [Example 11],1000 to 5000
3,Cc1ccc2c(Nc3sn(C)c(=O)c3C#N)c(Cl)ccc2n1 [Example 42],< 1000
4,Cn1sc(Nc2c(Cl)cccc2Cl)c(C(=O)N2CCOCC2)c1=O [Example 143],1000 to 5000
5,N#Cc1c(Nc2c(F)cccc2Cl)s[nH]c1=O [Example 102],< 1000
6,N#Cc1c(Nc2ccc(N3CC[C@@H](N)C3)nc2)s[nH]c1=O [Example 144],1000 to 5000
7,N#Cc1c(O)nsc1Nc1cc(Cl)ccc1Cl [Example 19],< 1000
8,Cn1sc(Nc2ccccc2Cl)c(C(=N)N2CCOCC2)c1=O [Example 126],< 1000
9,COc1cccc(Cl)c1Nc1sn(C)c(=O)c1C#N [Example 35],< 1000
10,CSc1ccccc1Nc1snc(O)c1C#N [Example 23],< 1000
11,COc1cccc(C(F)(F)F)c1Nc1s[nH]c(=O)c1C(=O)N1CCOCC1 [Example 159],> 5000
12,COCCn1sc(Nc2c(Cl)cccc2Cl)c(C(N)=O)c1=O [Example 118],> 5000
13,Cn1sc(Nc2c(Cl)ccc3c2CCCN3)c(C#N)c1=O [Example 77],< 1000
14,COc1ccc2nc(C)ccc2c1Nc1sn(C)c(=O)c1C#N [Example 82],< 1000
15,N#Cc1c(O)nsc1Nc1ccc(Cl)c(Cl)c1 [Example 8],1000 to 5000
16,COCCn1sc(Nc2cccc(Cl)c2Cl)c(C(=N)N2CCCCC2)c1=O [Example 127],< 1000
17,N#Cc1c(Nc2ccc(N3CC[C@@H](O)C3)nc2)s[nH]c1=O [Example 150],1000 to 5000
18,Cn1sc(Nc2c(F)cccc2Cl)c(C#N)c1=O [Example 45],< 1000
19,N#Cc1c(O)nsc1Nc1ccc(Cl)cc1Cl [Example 9],< 1000
20,O=C(c1c(Nc2ccccc2C(F)(F)F)s[nH]c1=O)N1CCCCC1 [Example 117],1000 to 5000
21,CN(C)C(=N)c1c(Nc2ccccc2C2CC2)s[nH]c1=O [Example 146],1000 to 5000
22,Cn1sc(Nc2ccc(Cl)c3c2cnn3C)c(C#N)c1=O [Example 69],< 1000
23,O=C(c1c(Nc2ccccc2C(F)(F)F)s[nH]c1=O)N1CC2CCC1CC2 [Example 174],> 5000

row,Compound,IC50 [nM]
1,CN(C(=O)c1c(Nc2ccccc2C(F)(F)F)s[nH]c1=O)C1CCCCC1 [Example 112],1000 to 5000
2,CN(C)C(=N)c1c(Nc2ccccc2Cl)sn(C)c1=O [Example 125],< 1000
3,N#Cc1c(Nc2cccc(-c3ccc4cc[nH]c4c3)c2C(F)(F)F)s[nH]c1=O [Example 161],> 5000
4,N#Cc1c(O)nsc1Nc1cccc(Cl)c1Cl [Example 17],< 1000
5,COc1cccc(C(F)(F)F)c1Nc1sn(C)c(=O)c1C(=O)N1CCOCC1 [Example 158],> 5000
6,Cn1sc(Nc2c(Cl)cccc2Cl)c(C(=N)N2CCOCC2)c1=O [Example 132],< 1000
7,C[C@@H](c1ccccc1)n1sc(Nc2c(Cl)cccc2Cl)c(C(=N)N2CCOCC2)c1=O [Example 165],> 5000
8,COc1cccc(Cl)c1Nc1s[nH]c(=O)c1C#N [Example 100],< 1000
9,Cc1ccc2c(Nc3sn(C)c(=O)c3C#N)cccc2n1 [Example 91],< 1000
10,Cn1sc(Nc2c(F)cccc2Cl)c(C(=O)N2CCOCC2)c1=O [Example 140],1000 to 5000
11,COCCn1sc(Nc2cccc(Cl)c2Cl)c(C(=N)N2CCOCC2)c1=O [Example 130],< 1000
12,CN(C)C(=N)c1c(Nc2c(Cl)ccc3ncccc23)s[nH]c1=O [Example 145],1000 to 5000
13,COC(C)(C)Cn1sc(Nc2c(Cl)cccc2Cl)c(C#N)c1=O [Example 96],< 1000
14,N#Cc1c(Nc2cccc(C(N)=O)c2C(F)(F)F)s[nH]c1=O [Example 108],1000 to 5000
15,N#Cc1c(Nc2ccc3nc(C(F)(F)F)[nH]c(=O)c3c2)s[nH]c1=O [Example 173],> 5000
16,COc1ccc2ncccc2c1Nc1sn(C)c(=O)c1C#N [Example 84],< 1000
17,N#Cc1c(Nc2c(Cl)ccc3ncccc23)s[nH]c1=O [Example 104],1000 to 5000
18,N#Cc1c(Nc2ccccc2C2CC2)s[nH]c1=O [Example 111],1000 to 5000
19,COc1ccccc1Nc1snc(O)c1C#N [Example 14],1000 to 5000
20,CS(=O)(=O)c1ccccc1Nc1snc(O)c1C#N [Example 25],< 1000
21,C[C@@H](c1ccccc1)n1sc(Nc2cccc(Cl)c2Cl)c(C#N)c1=O [Example 54],< 1000
22,COc1cccc(C)c1Nc1s[nH]c(=O)c1C#N [Example 109],1000 to 5000
23,C[C@@H](c1ccccc1)n1sc(Nc2ccccc2C(F)(F)F)c(C(=O)N2CCOCC2)c1=O [Example 147],1000 to 5000

# Now from value to compound:
row,IC50 [nM],Compound
1,< 1000,N#Cc1c(O)nsc1Nc1ccccc1C(F)(F)F [Example 6]
2,< 1000,N#Cc1c(Nc2ccccc2C(F)(F)F)sn(CCO)c1=O [Example 39]
3,< 1000,COCCCn1sc(Nc2ccccc2C(F)(F)F)c(C#N)c1=O [Example 71]
4,> 5000,COCCN(C)C(=O)c1c(Nc2ccccc2C(F)(F)F)sn([C@@H](C)c2ccccc2)c1=O [Example 114]
5,1000 to 5000,Cc1cc(C)n2c1CC1C=CC(CCC(=O)NCCCCCn3sc(Nc4ccccc4C(F)(F)F)c(C#N)c3=O)=[N+]1[B-]2(F)F (stereo not shown) [Example 176]
6,< 1000,N#Cc1c(Nc2c(Cl)cccc2Cl)sn(CCO)c1=O [Example 68]
7,< 1000,CN(C)CCn1sc(Nc2ccccc2C(F)(F)F)c(C#N)c1=O [Example 33]
8,< 1000,N#Cc1c(O)nsc1Nc1ccccc1OC(F)(F)F [Example 15]
9,< 1000,CN(C)CCn1sc(Nc2c(Cl)cccc2Cl)c(C#N)c1=O [Example 99]
10,< 1000,C[C@@H](c1ccccc1)n1sc(Nc2ccccc2C(F)(F)F)c(C(=N)N(C)C)c1=O [Example 128]
11,< 1000,COCCn1sc(Nc2ccc(Cl)cc2C(F)(F)F)c(C#N)c1=O [Example 70]
12,< 1000,N#Cc1c(Nc2ccccc2C(F)(F)F)sn(CCC(=O)O)c1=O [Example 105]
13,< 1000,C#CCOCCOCCn1sc(Nc2ccccc2C(F)(F)F)c(C#N)c1=O [Example 179]
14,< 1000,COCCn1sc(Nc2c(Cl)ccc3ncccc23)c(C#N)c1=O [Example 86]
15,< 1000,N#Cc1c(Nc2ccccc2C(F)(F)F)sn(CCOCCOCCNC(=O)CCCC[C@@H]2SC[C@@H]3NC(=O)N[C@@H]32)c1=O [Example 178]
16,> 5000,Cc1c(Nc2ccccc2C(F)(F)F)s[nH]c1=O [Example 169]

row,IC50 [nM],Compound
1,< 1000,CCCn1sc(Nc2ccccc2C(F)(F)F)c(C#N)c1=O [Example 87]
2,1000 to 5000,O=c1cc(Nc2ccccc2C(F)(F)F)s[nH]1 [Example 166]
3,< 1000,COCCn1sc(Nc2c(Cl)cccc2C(F)(F)F)c(C#N)c1=O [Example 90]
4,< 1000,C[C@@H](CO)n1sc(Nc2ccccc2C(F)(F)F)c(C#N)c1=O [Example 44]
5,< 1000,CS(=O)(=O)CCn1sc(Nc2ccccc2C(F)(F)F)c(C#N)c1=O [Example 55]
6,< 1000,C[C@H](CO)n1sc(Nc2ccccc2C(F)(F)F)c(C#N)c1=O [Example 47]
7,< 1000,N#Cc1c(Nc2ccccc2C(F)(F)F)sn(Cc2n[nH]c3ccccc23)c1=O [Example 92]
8,< 1000,N#Cc1c(Nc2ccccc2C(F)(F)F)sn(Cc2ccccc2)c1=O [Example 80]
9,> 5000,COc1ccc(Cn2sc(N(CCF)c3ccccc3C(F)(F)F)c(C#N)c2=O)cc1 [Example 121]
10,< 1000,N#Cc1c(Nc2cccc3ncccc23)sn(CCC(N)=O)c1=O [Example 122]
11,< 1000,CC(C)(O)Cn1sc(Nc2ccccc2C(F)(F)F)c(C#N)c1=O [Example 64]
12,< 1000,N#Cc1c(Nc2ccccc2C(F)(F)F)sn(CCc2ccccc2)c1=O [Example 83]
13,< 1000,COCCn1sc(Nc2ccccc2C(C)(C)C)c(C#N)c1=O [Example 98]
14,< 1000,CC(C)n1sc(Nc2ccccc2C(F)(F)F)c(C#N)c1=O [Example 107]
15,< 1000,COC[C@H](C)n1sc(Nc2ccccc2C(F)(F)F)c(C#N)c1=O [Example 59]
16,< 1000,COCC(C)n1sc(Nc2ccccc2C(F)(F)F)c(C#N)c1=O (stereo not shown) [Example 74]
